Measured values taken from patent publication US3984395A, “Method of isolating gentamicin C2a” (Schering Corporation, priority 1974, dated 1976).
≈ marks a conversion by molar mass, not a printed value.

Key:
[1] = acute intravenous LD50 in mice; conditions: mouse, in vivo, male CF-1 mice, 20 grams each
[2] = system: gram-positive and gram-negative bacteria; assay: antibacterial spectrum in vitro; assay type: cell-based; conditions: compared with gentamicin C1, C1a, and C2
Description: Thus, the antiobiotic may be used for substantially the same anti-bacterial indications and in the same manner as disclosed in U.S. Pat. No. 3,091,572. For example, it is useful in wash solutions, for sanitary purposes, as in the washing of hands and the cleaning of equipment in contaminated rooms.
(§1) In Table 1, set forth below is shown the in vitro minimal inhibitory concentration (MIC) of gentamicin C2a against representative gram-positive and gram-negative bacteria. The results are derived using the standard tube dilution method in Mueller-Hinton broth.

[3] = system: Bacillus subtilis 663; assay: in vitro MIC, standard tube dilution method; assay type: cell-based; conditions: Mueller-Hinton broth, read-out: minimal inhibitory concentration (MIC)
Description: as §1

[4] = system: Pseudomonas aeruginosa 20; assay: in vitro MIC, standard tube dilution method; assay type: cell-based; conditions: Mueller-Hinton broth, read-out: minimal inhibitory concentration (MIC)
Description: as §1

[5] = system: Pseudomonas aeruginosa St 138; assay: in vitro MIC, standard tube dilution method; assay type: cell-based; conditions: ST138; Pseudomonas aeruginosa St 138 (Gentamicin resistant); Mueller-Hinton broth; read-out: minimal inhibitory concentration (MIC)
Description: as §1

[6] = system: Staphylococcus aureus Ziegler; assay: in vitro MIC, standard tube dilution method; assay type: cell-based; conditions: Mueller-Hinton broth, read-out: minimal inhibitory concentration (MIC)
Description: as §1

[7] = system: Escherichia coli JR66; assay: in vitro MIC, standard tube dilution method; assay type: cell-based; conditions: Mueller-Hinton broth, read-out: minimal inhibitory concentration (MIC)
Description: as §1

[8] = system: Pseudomonas aeruginosa Travers; assay: in vitro MIC, standard tube dilution method; assay type: cell-based; conditions: Pseudomonas aeruginosa Travers (Gentamicin resistant); Mueller-Hinton broth; read-out: minimal inhibitory concentration (MIC)
Description: as §1

[9] = system: Salmonella typhi. B.; assay: in vitro MIC, standard tube dilution method; assay type: cell-based; conditions: Salmonella enterica, read-out: minimal inhibitory concentration (MIC)
Description: as §1

[10] = system: Escherichia coli ATCC 10536; assay: in vitro MIC, standard tube dilution method; assay type: cell-based; conditions: ATCC10536, Mueller-Hinton broth, read-out: minimal inhibitory concentration (MIC)
Description: as §1

[11] = system: Klebsiella pneumoniae 17; assay: in vitro MIC, standard tube dilution method; assay type: cell-based; conditions: Mueller-Hinton broth, read-out: minimal inhibitory concentration (MIC)
Description: as §1

[12] = system: Staphylococcus aureus 59N; assay: in vitro MIC, standard tube dilution method; assay type: cell-based; conditions: Mueller-Hinton broth, read-out: minimal inhibitory concentration (MIC)
Description: as §1

[13] = system: Pseudomonas aeruginosa 3223; assay: in vitro MIC, standard tube dilution method; assay type: cell-based; conditions: Mueller-Hinton broth, read-out: minimal inhibitory concentration (MIC)
Description: as §1

[14] = system: Staphylococcus aureus 6538P; assay: in vitro MIC, standard tube dilution method; assay type: cell-based; conditions: Mueller-Hinton broth, read-out: minimal inhibitory concentration (MIC)
Description: as §1

[15] = system: Escherichia coli La290R55; assay: in vitro MIC, standard tube dilution method; assay type: cell-based; conditions: LA290R55, read-out: minimal inhibitory concentration (MIC)
Description: as §1

[16] = system: Klebsiella pneumoniae 3694; assay: in vitro MIC, standard tube dilution method; assay type: cell-based; conditions: Mueller-Hinton broth, read-out: minimal inhibitory concentration (MIC)
Description: as §1

[17] = system: Streptococcus pyogenes C; assay: in vitro MIC, standard tube dilution method; assay type: cell-based; conditions: Mueller-Hinton broth, read-out: minimal inhibitory concentration (MIC)
Description: as §1

[18] = system: Pseudomonas aeruginosa 762; assay: in vitro MIC, standard tube dilution method; assay type: cell-based; conditions: Mueller-Hinton broth, read-out: minimal inhibitory concentration (MIC)
Description: as §1

Row | SMILES | LD50 [1] [mg/kg] | antibacterial spectrum in vitro [2] | MIC [3] [µg/mL] | MIC [4] [µg/mL] | MIC [5] [µg/mL] | MIC [6] [µg/mL] | MIC [7] [µg/mL] | MIC [8] [µg/mL] | MIC [9] [µg/mL] | MIC [10] [µg/mL] | MIC [11] [µg/mL] | MIC [12] [µg/mL] | MIC [13] [µg/mL] | MIC [14] [µg/mL] | MIC [15] [µg/mL] | MIC [16] [µg/mL] | MIC [17] [µg/mL] | MIC [18] [µg/mL]
1 | CN[C@@H]1[C@@H](O)[C@@H](O[C@@H]2[C@@H](O)[C@H](O[C@H]3O[C@H]([C@@H](C)N)CC[C@H]3N)[C@@H](N)C[C@H]2N)OC[C@]1(C)O [gentamicin C2] | 83 |  |  |  |  |  |  |  |  |  |  |  |  |  |  |  |  | 
2 | CN[C@@H]1[C@@H](O)[C@@H](O[C@@H]2[C@@H](O)[C@H](O[C@H]3O[C@H]([C@H](C)N)CC[C@H]3N)[C@@H](N)C[C@H]2N)OC[C@]1(C)O [gentamicin C2a] | 110 | substantially the same antibacterial spectrum in vitro as do gentamicin C1, C1a, and C2 | 0.1 (≈ 0.216 µM) | 3 (≈ 6.47 µM) | > 25 | 0.3 (≈ 0.647 µM) | 7.5 (≈ 16.2 µM) | > 25 | 0.3 (≈ 0.647 µM) | 0.3 (≈ 0.647 µM) | 0.8 (≈ 1.73 µM) | 0.3 (≈ 0.647 µM) | 0.3 (≈ 0.647 µM) | 0.3 (≈ 0.647 µM) | 17.5 (≈ 37.8 µM) | 17.5 (≈ 37.8 µM) | 7.5 (≈ 16.2 µM) | 0.8 (≈ 1.73 µM)
